{
  "source": "patent US12552792B2",
  "about": "“Solid forms of an FGFR inhibitor and processes for preparing the same” (Incyte Corporation, priority 2018, dated 2026)",
  "format_in_all_cases": "physicochemical",
  "key": {"[1]": {"assay": "Solubility measurement of Form I in solvent systems (HPLC)", "details": "organic solvent or mixture, thermodynamic from solid", "experimental": "Form I waw found to be completely soluble (>50 mg/mL) in many solvents including DMF (50° C.), DCM, chloroform, DMSO, and DCM/MeOH (9/1) at 25° C. and 50° C."}, "[2]": {"assay": "Solubility measurement of Form I in solvent systems (HPLC)", "details": "for solubility at 24 h: organic solvent or mixture, thermodynamic from solid, stirred 24 h, HPLC; for solubility (in words): 25° C."}, "[3]": {"assay": "Conversion of Form II to Form I in different solvents", "description": "The Form II was converted to Form I in acetonitrile, ethanol and IPA respectively as described in Table 13."}},
  "note": "Like-named read-outs stand apart in the source and are kept apart here.",
  "data": [
    {"smiles": "CCN1C(=O)N(c2c(F)c(OC)cc(OC)c2F)Cc2cnc3[nH]c(CN4CCOCC4)cc3c21", "note": "[Form IX]", "values": [
      {"measurement": "solubility at 24 h", "setting": "[1]; 25 °C, solvent MTBE, stirred 24 h, HPLC, read-out: Solubility at 25° C.", "value": 50, "unit": "µg/mL"}
    ]},
    {"smiles": "CCN1C(=O)N(c2c(F)c(OC)cc(OC)c2F)Cc2cnc3[nH]c(CN4CCOCC4)cc3c21", "note": "[Form VI]", "values": [
      {"measurement": "solubility at 24 h", "setting": "[2]; 25 °C, solvent Methanol, read-out: Solubility at 25° C.", "value": 640, "unit": "µg/mL"}
    ]},
    {"smiles": "CCN1C(=O)N(c2c(F)c(OC)cc(OC)c2F)Cc2cnc3[nH]c(CN4CCOCC4)cc3c21", "note": "[Form XI]", "values": [
      {"measurement": "solubility at 24 h", "setting": "[1]; 25 °C, solvent Ethyl formate, stirred 24 h, HPLC, read-out: Solubility at 25° C.", "value": 4160, "unit": "µg/mL"}
    ]},
    {"smiles": "CCN1C(=O)N(c2c(F)c(OC)cc(OC)c2F)Cc2cnc3[nH]c(CN4CCOCC4)cc3c21", "note": "[Form VIII]", "values": [
      {"measurement": "solubility at 24 h", "setting": "[1]; 25 °C, solvent Acetone, stirred 24 h, HPLC, read-out: Solubility at 25° C.", "value": 2680, "unit": "µg/mL"}
    ]},
    {"smiles": "CCN1C(=O)N(c2c(F)c(OC)cc(OC)c2F)Cc2cnc3[nH]c(CN4CCOCC4)cc3c21", "note": "[Form X]", "values": [
      {"measurement": "solubility at 24 h", "setting": "[2]; 25 °C, solvent EtOAc, read-out: Solubility at 25° C.", "value": 700, "unit": "µg/mL"}
    ]},
    {"smiles": "CCN1C(=O)N(c2c(F)c(OC)cc(OC)c2F)Cc2cnc3[nH]c(CN4CCOCC4)cc3c21", "note": "[Form II]", "values": [
      {"measurement": "solubility at 24 h", "setting": "[2]; 25 °C, solvent Dichloromethane, read-out: Solubility at 25° C.", "value": "> 50000", "unit": "µg/mL"},
      {"measurement": "Conversion result (solid form)", "setting": "[3]; 18 mg Form II in EtOH (0.7 mL)", "value": "Form I"},
      {"measurement": "Conversion result (solid form)", "setting": "[3]; 18 mg Form II in IPA (0.7 mL)", "value": "Form I"},
      {"measurement": "Conversion result (solid form)", "setting": "[3]; 18 mg Form II in MeCN (0.7 mL)", "value": "Form I"}
    ]},
    {"smiles": "CCN1C(=O)N(c2c(F)c(OC)cc(OC)c2F)Cc2cnc3[nH]c(CN4CCOCC4)cc3c21", "note": "[Form VII]", "values": [
      {"measurement": "solubility at 24 h", "setting": "[1]; 25 °C, solvent MIBK, stirred 24 h, HPLC, read-out: Solubility at 25° C.", "value": 430, "unit": "µg/mL"}
    ]},
    {"smiles": "CCN1C(=O)N(c2c(F)c(OC)cc(OC)c2F)Cc2cnc3[nH]c(CN4CCOCC4)cc3c21", "note": "[Form I]", "values": [
      {"measurement": "solubility at 24 h", "setting": "[2]; 25 °C, solvent 2-Methoxyethanol, read-out: Solubility at 25° C.", "value": 15300, "unit": "µg/mL"},
      {"measurement": "solubility at 24 h", "setting": "[2]; 25 °C, solvent Chloroform, read-out: Solubility at 25° C.", "value": "> 50000", "unit": "µg/mL"},
      {"measurement": "solubility at 24 h", "setting": "[2]; 25 °C, solvent DMF, read-out: Solubility at 25° C.", "value": 42000, "unit": "µg/mL"},
      {"measurement": "solubility at 24 h", "setting": "[2]; 25 °C, solvent DMSO, read-out: Solubility at 25° C.", "value": "> 50000", "unit": "µg/mL"},
      {"measurement": "solubility at 24 h", "setting": "[2]; 25 °C, solvent EtOH, read-out: Solubility at 25° C.", "value": 970, "unit": "µg/mL"},
      {"measurement": "solubility at 24 h", "setting": "[2]; 25 °C, solvent IPA/water (4/1), read-out: Solubility at 25° C.", "value": 5350, "unit": "µg/mL"},
      {"measurement": "solubility at 24 h", "setting": "[2]; 25 °C, solvent IPA, read-out: Solubility at 25° C.", "value": 560, "unit": "µg/mL"},
      {"measurement": "solubility at 24 h", "setting": "[2]; 25 °C, solvent Isobutyl acetate, read-out: Solubility at 25° C.", "value": 460, "unit": "µg/mL"},
      {"measurement": "solubility at 24 h", "setting": "[2]; 25 °C, solvent MEK, read-out: Solubility at 25° C.", "value": 1200, "unit": "µg/mL"},
      {"measurement": "solubility at 24 h", "setting": "[2]; 25 °C, solvent MeCN, read-out: Solubility at 25° C.", "value": 5390, "unit": "µg/mL"},
      {"measurement": "solubility at 24 h", "setting": "[2]; 25 °C, solvent THF, read-out: Solubility at 25° C.", "value": 4110, "unit": "µg/mL"},
      {"measurement": "solubility at 24 h", "setting": "[2]; 25 °C, solvent n-BuOH, read-out: Solubility at 25° C.", "value": 820, "unit": "µg/mL"},
      {"measurement": "solubility at 24 h", "setting": "[2]; 50 °C, solvent 2-Methoxyethanol, read-out: Solubility at 50° C.", "value": 20500, "unit": "µg/mL"},
      {"measurement": "solubility at 24 h", "setting": "[2]; 50 °C, solvent Acetone, read-out: Solubility at 50° C.", "value": 6670, "unit": "µg/mL"},
      {"measurement": "solubility at 24 h", "setting": "[2]; 50 °C, solvent DCM/MeOH (9/1), read-out: Solubility at 50° C.", "value": "> 50000", "unit": "µg/mL"},
      {"measurement": "solubility at 24 h", "setting": "[2]; 50 °C, solvent DMF, read-out: Solubility at 50° C.", "value": "> 50000", "unit": "µg/mL"},
      {"measurement": "solubility at 24 h", "setting": "[2]; 50 °C, solvent DMSO, read-out: Solubility at 50° C.", "value": "> 50000", "unit": "µg/mL"},
      {"measurement": "solubility at 24 h", "setting": "[2]; 50 °C, solvent EtOH, read-out: Solubility at 50° C.", "value": 2730, "unit": "µg/mL"},
      {"measurement": "solubility at 24 h", "setting": "[2]; 50 °C, solvent Ethyl formate, read-out: Solubility at 50° C.", "value": 15300, "unit": "µg/mL"},
      {"measurement": "solubility at 24 h", "setting": "[2]; 50 °C, solvent IPA/water (4/1), read-out: Solubility at 50° C.", "value": 8770, "unit": "µg/mL"},
      {"measurement": "solubility at 24 h", "setting": "[2]; 50 °C, solvent IPA, read-out: Solubility at 50° C.", "value": 1370, "unit": "µg/mL"},
      {"measurement": "solubility at 24 h", "setting": "[2]; 50 °C, solvent IPAc, read-out: Solubility at 50° C.", "value": 1330, "unit": "µg/mL"},
      {"measurement": "solubility at 24 h", "setting": "[2]; 50 °C, solvent Isobutyl acetate, read-out: Solubility at 50° C.", "value": 580, "unit": "µg/mL"},
      {"measurement": "solubility at 24 h", "setting": "[2]; 50 °C, solvent MEK, read-out: Solubility at 50° C.", "value": 3220, "unit": "µg/mL"},
      {"measurement": "solubility at 24 h", "setting": "[2]; 50 °C, solvent MIBK, read-out: Solubility at 50° C.", "value": 1120, "unit": "µg/mL"},
      {"measurement": "solubility at 24 h", "setting": "[2]; 50 °C, solvent MTBE, read-out: Solubility at 50° C.", "value": 190, "unit": "µg/mL"},
      {"measurement": "solubility at 24 h", "setting": "[2]; 50 °C, solvent Toluene, read-out: Solubility at 50° C.", "value": 820, "unit": "µg/mL"},
      {"measurement": "solubility at 24 h", "setting": "[2]; 50 °C, solvent n-BuOH, read-out: Solubility at 50° C.", "value": 1650, "unit": "µg/mL"},
      {"measurement": "solubility (in words)", "setting": "[2]; MTBE, toluene, IPAc, methanol, and IPA", "value": "sparingly soluble"},
      {"measurement": "solubility (in words)", "setting": "[2]; water, heptane and hexane", "value": "almost insoluble"},
      {"measurement": "solubility at 24 h", "setting": "[1]; 25 °C, solvent 1-Propanol, stirred 24 h, HPLC, read-out: Solubility at 25° C.", "value": 1160, "unit": "µg/mL"},
      {"measurement": "solubility at 24 h", "setting": "[1]; 25 °C, solvent DCM/MeOH (9/1), stirred 24 h, HPLC, read-out: Solubility at 25° C.", "value": "> 50000", "unit": "µg/mL"},
      {"measurement": "solubility at 24 h", "setting": "[1]; 25 °C, solvent IPAc, stirred 24 h, HPLC, read-out: Solubility at 25° C.", "value": 880, "unit": "µg/mL"},
      {"measurement": "solubility at 24 h", "setting": "[1]; 25 °C, solvent Toluene, stirred 24 h, HPLC, read-out: Solubility at 25° C.", "value": 450, "unit": "µg/mL"},
      {"measurement": "solubility at 24 h", "setting": "[1]; 50 °C, solvent 1-Propanol, stirred 24 h, HPLC, read-out: Solubility at 50° C.", "value": 2500, "unit": "µg/mL"},
      {"measurement": "solubility at 24 h", "setting": "[1]; 50 °C, solvent Chloroform, stirred 24 h, HPLC, read-out: Solubility at 50° C.", "value": "> 50000", "unit": "µg/mL"},
      {"measurement": "solubility at 24 h", "setting": "[1]; 50 °C, solvent Dichloromethane, stirred 24 h, HPLC, read-out: Solubility at 50° C.", "value": "> 50000", "unit": "µg/mL"},
      {"measurement": "solubility at 24 h", "setting": "[1]; 50 °C, solvent EtOAc, stirred 24 h, HPLC, read-out: Solubility at 50° C.", "value": 2260, "unit": "µg/mL"},
      {"measurement": "solubility at 24 h", "setting": "[1]; 50 °C, solvent MeCN, stirred 24 h, HPLC, read-out: Solubility at 50° C.", "value": 8390, "unit": "µg/mL"},
      {"measurement": "solubility at 24 h", "setting": "[1]; 50 °C, solvent Methanol, stirred 24 h, HPLC, read-out: Solubility at 50° C.", "value": 2050, "unit": "µg/mL"},
      {"measurement": "solubility at 24 h", "setting": "[1]; DMF (50° C.), DCM, chloroform, DMSO, DCM/MeOH (9/1) at 25° C. and 50° C., read-out: completely soluble", "value": "> 50000", "unit": "µg/mL"},
      {"measurement": "solubility", "setting": "[1]; DMSO, 25° C., slurry obtained after stirring the clear solution of 60 mg Form I in 1 mL DMSO, read-out: solubility of the saturated solution", "value": 6130, "unit": "µg/mL"}
    ]},
    {"smiles": "CCN1C(=O)N(c2c(F)c(OC)cc(OC)c2F)Cc2cnc3[nH]c(CN4CCOCC4)cc3c21", "note": "[Form XIII]", "values": [
      {"measurement": "solubility at 24 h", "setting": "[2]; 50 °C, solvent THF, read-out: Solubility at 50° C.", "value": 10000, "unit": "µg/mL"}
    ]},
    {"smiles": "CCN1C(=O)N(c2c(F)c(OC)cc(OC)c2F)Cc2cnc3[nH]c(CN4CCOCC4)cc3c21", "note": "[Form III]", "values": [
      {"measurement": "solubility at 24 h", "setting": "[2]; 25 °C, solvent 1,4-Dioxane, read-out: Solubility at 25° C.", "value": 2230, "unit": "µg/mL"},
      {"measurement": "solubility at 24 h", "setting": "[1]; 50 °C, solvent 1,4-Dioxane, stirred 24 h, HPLC, read-out: Solubility at 50° C.", "value": 5690, "unit": "µg/mL"}
    ]}
  ]
}
